# Laboratory results: patent US11123434B2, “Drug delivery device and its method of manufacture” (City University of Hong Kong, priority 2017, dated 2021)
# Assay: Drug release from loaded sponges at 37° C. in deionized water
# Type: physicochemical
# Conditions: comparison among model drugs MB, ORO, TH
# From the text: To maintain constant therapeutic levels for prolonged periods and to reduce the total dose of administration, the ability of a carrier to prolong drug release is required.
smiles,measurement,value
CN(C)[C@@H]1C(=O)C(C(N)=O)=C(O)[C@@]2(O)C(=O)C3=C(O)c4c(O)cccc4[C@@](C)(O)[C@H]3C[C@@H]12.Cl [TH],drug release sustainability,more sustainable as compared to that of ORO
